Format in all cases: biochemical
One assay has as its target T1, recombinant human DPP7 (Homo sapiens, UniProt Q9UHL4).
T1 construct: purchased R&D Systems
Kind of assay: DPP7 inhibition, fluorogenic substrate Lys-Pro-AMC. The method, boiled down:
(§1)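 Enzyme per reaction: 50 ng DPP9, 20 ng DPP8, 10 ng each DPP7 and PREP. Compounds were serially diluted (8 points, up to 0.5% DMSO) and incubated at 25 °C.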

The next assay has as its target T2, Recombinant human FAP (Homo sapiens, UniProt Q12884).
T2 construct: purchased R&D systems
T2 sequence (Q12884 1-760): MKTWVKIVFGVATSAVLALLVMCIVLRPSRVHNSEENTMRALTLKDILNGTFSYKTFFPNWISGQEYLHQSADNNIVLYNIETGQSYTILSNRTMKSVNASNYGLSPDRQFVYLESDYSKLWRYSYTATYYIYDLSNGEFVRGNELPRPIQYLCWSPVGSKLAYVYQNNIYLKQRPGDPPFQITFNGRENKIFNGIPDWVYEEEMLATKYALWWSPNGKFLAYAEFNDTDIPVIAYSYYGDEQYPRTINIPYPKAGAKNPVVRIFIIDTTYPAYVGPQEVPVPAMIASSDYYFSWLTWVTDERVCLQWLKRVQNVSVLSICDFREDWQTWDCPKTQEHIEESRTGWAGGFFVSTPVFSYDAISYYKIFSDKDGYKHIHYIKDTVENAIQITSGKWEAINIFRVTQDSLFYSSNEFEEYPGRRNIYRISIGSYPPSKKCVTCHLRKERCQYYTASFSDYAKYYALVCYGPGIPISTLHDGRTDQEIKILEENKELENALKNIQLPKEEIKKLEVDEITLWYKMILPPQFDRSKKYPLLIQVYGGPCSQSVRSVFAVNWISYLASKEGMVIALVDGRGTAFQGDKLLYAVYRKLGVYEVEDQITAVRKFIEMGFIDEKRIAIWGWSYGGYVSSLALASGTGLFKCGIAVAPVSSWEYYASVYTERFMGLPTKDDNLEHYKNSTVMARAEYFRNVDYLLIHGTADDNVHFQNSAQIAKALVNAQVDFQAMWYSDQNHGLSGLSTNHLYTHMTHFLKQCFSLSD
Kind of assay: FAP inhibition, fluorogenic substrate Z-Gly-Pro-AMC. The method in brief: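 Recombinant human FAP, 10 ng per reaction, in 50 mM Tris pH 7.5 with 1 M NaCl and 1 mg/ml BSA at 25° C; substrate Z-Gly-Pro-AMC, ≤0.1% DMSO. AMC fluorescence read at ex 380/em 460 nm; % signal-rate decrease vs no-inhibitor control, 8-point curves fitted to a four-parameter logistic for IC50.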

Another assay has as its target T3, recombinant human DPP9 (Homo sapiens, UniProt Q86TI2).
T3 construct: purchased R&D Systems
Put plainly: DPP9 inhibition, fluorogenic substrate H-Gly-Pro-AMC. The method in brief: as §1

For another assay, the target named is T4, recombinant human DPP8 (Homo sapiens, UniProt Q6V1X1).
T4 construct: purchased PBS Bioscience
Put plainly: DPP8 inhibition, fluorogenic substrate Z-Ala-Pro-AMC. The method, boiled down:
as §1

The next assay addresses T5, recombinant human PREP (Homo sapiens, UniProt P48147).
T5 construct: purchased R&D System
T5 sequence (P48147 1-710): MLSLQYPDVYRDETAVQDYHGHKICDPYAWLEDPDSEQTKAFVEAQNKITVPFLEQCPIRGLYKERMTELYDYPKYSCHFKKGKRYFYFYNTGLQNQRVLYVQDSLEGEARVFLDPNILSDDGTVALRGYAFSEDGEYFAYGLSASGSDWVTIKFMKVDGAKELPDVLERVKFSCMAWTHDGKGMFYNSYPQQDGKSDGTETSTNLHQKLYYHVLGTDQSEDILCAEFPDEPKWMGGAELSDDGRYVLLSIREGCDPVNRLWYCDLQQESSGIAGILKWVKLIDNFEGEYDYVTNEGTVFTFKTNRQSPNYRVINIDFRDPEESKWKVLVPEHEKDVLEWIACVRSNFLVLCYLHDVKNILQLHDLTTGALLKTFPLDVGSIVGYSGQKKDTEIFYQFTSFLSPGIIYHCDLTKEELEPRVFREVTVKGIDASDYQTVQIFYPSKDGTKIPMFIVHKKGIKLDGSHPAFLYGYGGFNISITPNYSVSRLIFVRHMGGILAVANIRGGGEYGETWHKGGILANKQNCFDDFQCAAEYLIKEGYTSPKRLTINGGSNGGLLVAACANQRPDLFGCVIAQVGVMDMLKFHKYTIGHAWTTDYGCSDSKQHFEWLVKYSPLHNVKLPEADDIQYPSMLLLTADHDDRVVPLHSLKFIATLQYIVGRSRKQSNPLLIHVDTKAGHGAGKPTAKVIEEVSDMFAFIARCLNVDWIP
Kind of assay: PREP inhibition, fluorogenic substrate Z-Gly-Pro-AMC. Conditions: Inhibitory Activity (IC50, nM) PREP. The method in brief:
as §1

For the next assay, the target named is DPP4 (Homo sapiens, UniProt P27487). Put plainly: DPP4 inhibition, fluorogenic substrate H-Gly-Pro-AMC. The arrangement: purchased R&D Systems. The conditions noted are these: for inhibition at 1 µM: read-out: hDPP4 inhibition % at 1 μM.
Setting [1] is: recombinant human FAP, substrate Z-Gly-Pro-AMC.
Where [2] appears, read: 25° C., Z-Gly-Pro-AMC substrate.
The mark [3] stands for this setting: 25° C., H-Gly-Pro-AMC substrate.
Setting [4] is: 25° C., Z-Ala-Pro-AMC substrate.

Our source for the IC50 and inhibition values is patent US11655235B2, “Pyrrolidine and piperidine compounds” (YUHAN CORPORATION, priority 2019, dated 2023).

Read-outs that look alike come from different tables or passages of the source.

T3 sequence (Q86TI2 whole entry): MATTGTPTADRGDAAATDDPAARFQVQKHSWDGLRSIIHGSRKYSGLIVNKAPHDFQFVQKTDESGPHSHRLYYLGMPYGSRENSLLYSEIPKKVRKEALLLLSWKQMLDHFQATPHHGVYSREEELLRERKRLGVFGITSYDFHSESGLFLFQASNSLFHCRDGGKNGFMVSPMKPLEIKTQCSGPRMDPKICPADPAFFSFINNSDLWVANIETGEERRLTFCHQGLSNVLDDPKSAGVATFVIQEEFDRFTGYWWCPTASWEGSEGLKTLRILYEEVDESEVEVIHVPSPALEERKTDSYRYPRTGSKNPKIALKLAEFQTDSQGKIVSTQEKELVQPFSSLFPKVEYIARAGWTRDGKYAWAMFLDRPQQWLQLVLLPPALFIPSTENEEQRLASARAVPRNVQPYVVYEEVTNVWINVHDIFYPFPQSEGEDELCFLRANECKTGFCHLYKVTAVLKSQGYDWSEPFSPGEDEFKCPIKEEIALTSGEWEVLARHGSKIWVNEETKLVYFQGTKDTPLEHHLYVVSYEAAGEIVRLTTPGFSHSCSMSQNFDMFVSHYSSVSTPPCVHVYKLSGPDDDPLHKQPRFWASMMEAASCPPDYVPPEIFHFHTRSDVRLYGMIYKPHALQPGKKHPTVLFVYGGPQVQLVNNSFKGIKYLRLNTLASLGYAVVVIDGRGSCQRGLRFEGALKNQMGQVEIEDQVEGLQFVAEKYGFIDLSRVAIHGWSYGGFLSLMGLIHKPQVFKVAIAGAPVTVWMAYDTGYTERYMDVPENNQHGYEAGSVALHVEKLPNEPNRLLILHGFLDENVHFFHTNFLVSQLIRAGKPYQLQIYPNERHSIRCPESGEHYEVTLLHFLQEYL
Chain of DPP4 (P27487 whole entry): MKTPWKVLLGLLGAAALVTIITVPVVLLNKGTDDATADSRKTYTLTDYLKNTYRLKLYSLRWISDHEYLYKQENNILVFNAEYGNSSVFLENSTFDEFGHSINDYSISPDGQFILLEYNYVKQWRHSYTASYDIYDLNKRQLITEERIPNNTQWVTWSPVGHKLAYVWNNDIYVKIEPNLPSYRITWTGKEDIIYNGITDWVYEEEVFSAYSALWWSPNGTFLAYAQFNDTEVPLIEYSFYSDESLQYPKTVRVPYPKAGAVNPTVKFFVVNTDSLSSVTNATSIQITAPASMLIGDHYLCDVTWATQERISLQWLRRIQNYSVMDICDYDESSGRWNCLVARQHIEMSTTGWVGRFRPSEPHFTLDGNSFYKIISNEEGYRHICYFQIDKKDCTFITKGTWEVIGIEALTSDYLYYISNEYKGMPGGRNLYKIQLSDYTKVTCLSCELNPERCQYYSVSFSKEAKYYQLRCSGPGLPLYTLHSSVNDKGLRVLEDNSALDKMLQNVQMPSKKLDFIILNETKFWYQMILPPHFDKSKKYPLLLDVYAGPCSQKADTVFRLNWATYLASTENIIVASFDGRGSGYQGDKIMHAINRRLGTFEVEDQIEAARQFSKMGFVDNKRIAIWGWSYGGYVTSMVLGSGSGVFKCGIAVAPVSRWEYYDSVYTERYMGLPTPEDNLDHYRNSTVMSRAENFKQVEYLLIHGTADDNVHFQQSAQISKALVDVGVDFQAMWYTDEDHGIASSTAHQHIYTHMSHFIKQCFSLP
T4 sequence (Q6V1X1 whole entry): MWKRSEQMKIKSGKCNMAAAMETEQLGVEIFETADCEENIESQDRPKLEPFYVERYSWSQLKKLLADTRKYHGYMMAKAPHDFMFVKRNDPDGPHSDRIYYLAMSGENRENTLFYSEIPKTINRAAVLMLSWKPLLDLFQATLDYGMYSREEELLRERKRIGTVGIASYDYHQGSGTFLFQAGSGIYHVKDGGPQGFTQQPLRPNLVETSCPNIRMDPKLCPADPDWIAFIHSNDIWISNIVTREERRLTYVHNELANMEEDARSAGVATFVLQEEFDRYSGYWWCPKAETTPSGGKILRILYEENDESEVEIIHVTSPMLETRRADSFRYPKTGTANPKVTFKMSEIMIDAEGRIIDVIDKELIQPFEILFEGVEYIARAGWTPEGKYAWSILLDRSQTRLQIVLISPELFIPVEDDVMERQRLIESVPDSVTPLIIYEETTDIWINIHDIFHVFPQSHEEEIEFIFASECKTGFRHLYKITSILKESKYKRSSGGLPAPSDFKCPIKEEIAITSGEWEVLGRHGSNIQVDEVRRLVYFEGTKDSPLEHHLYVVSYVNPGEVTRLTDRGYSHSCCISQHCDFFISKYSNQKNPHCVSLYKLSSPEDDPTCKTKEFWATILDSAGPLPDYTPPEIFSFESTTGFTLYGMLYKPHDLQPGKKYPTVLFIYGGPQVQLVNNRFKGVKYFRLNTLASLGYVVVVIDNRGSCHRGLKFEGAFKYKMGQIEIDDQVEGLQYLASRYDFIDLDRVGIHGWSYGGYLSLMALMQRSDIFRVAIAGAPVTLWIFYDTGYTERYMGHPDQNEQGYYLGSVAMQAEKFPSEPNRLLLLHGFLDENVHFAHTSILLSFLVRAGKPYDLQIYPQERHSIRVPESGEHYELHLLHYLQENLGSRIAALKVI

In the case of `N#C[C@@H]1CCCN1C(=O)CN1CC[C@H](Nc2ccc(OCc3ccccc3)c3ncccc23)C1` [Example 248, (2S)-1-[2-[(3S)-3-[(8-benzyloxy-5-quinolyl)amino]pyrrolidin-1-yl]acetyl]pyrrolidine-2-carbonitrile], the IC50 (as a rule, the midpoint of a concentration-inhibition curve) on recombinant human DPP7 (recombinant human DPP7) was 0.81 µM; on Recombinant human FAP (setting [1]), 0.0031 µM; on recombinant human DPP9 (recombinant human DPP9) it was 3.68 µM; on recombinant human DPP8 (recombinant human DPP8), 5.34 µM; at recombinant human PREP (recombinant human PREP), 6160 nM; at DPP4 (recombinant human DPP4) it was 7.07 µM.

`N#C[C@@H]1CCCN1C(=O)CN1CC[C@H](Nc2ccc(OC(F)(F)F)c3ncccc23)C1` [Example 246, (2S)-1-[2-[(3S)-3-[[8-(trifluoromethoxy)-5-quinolyl]amino]pyrrolidin-1-yl]acetyl]pyrrolidine-2-carbonitrile]: the IC50 on recombinant human DPP7 (recombinant human DPP7) was 2.56 µM; at Recombinant human FAP (setting [1]), 0.0009 µM; on recombinant human DPP9 (recombinant human DPP9) it was 21 µM; at recombinant human DPP8 (recombinant human DPP8), above 30 µM; on recombinant human PREP (recombinant human PREP), 11300 nM; on DPP4 (recombinant human DPP4), above 10 µM.

With `N#C[C@@H]1CCCN1C(=O)CN1CC[C@H](NC(=O)c2coc3c(F)cc(F)cc23)C1` [Example 51, N—((S)-1-(2-((S)-2-cyanopyrrolidin-1-yl)-2-oxoethyl)pyrrolidin-3-yl)-5,7-difluorobenzofuran-3-carboxamide], the IC50 on recombinant human DPP7 was 3.32 µM; at Recombinant human FAP (setting [2]), 0.0109 µM; on recombinant human DPP9 (setting [3]) it was above 100 µM; on recombinant human DPP8 (setting [4]) it was 38.9 µM; at recombinant human PREP (setting [2]), 13400 nM. In addition, the inhibition (commonly the drop in the measured response relative to a control, in per cent) at 1 µM at DPP4 came out at 0.6%.

Regarding `N#C[C@@H]1C[C@H](F)CN1C(=O)CN1CCC(Oc2ccc3ccncc3c2)CC1` [Example 423, (2S,4S)-4-fluoro-1-[2-[4-(7-isoquinolyloxy)-1-piperidyl]acetyl]pyrrolidine-2-carbonitrile], the IC50 was 2.05 µM at recombinant human DPP7 (recombinant human DPP7); 0.0093 µM at Recombinant human FAP (setting [1]); 9.33 µM on recombinant human DPP9 (recombinant human DPP9); 3.46 µM at recombinant human DPP8 (recombinant human DPP8); 990 nM on recombinant human PREP (recombinant human PREP); 8.99 µM at DPP4 (recombinant human DPP4).

Consider `N#C[C@@H]1C[C@H](F)CN1C(=O)CN1CC[C@H](Nc2ccc(C(F)(F)F)c3ncccc23)C1` [Example 265, (2S,4S)-4-fluoro-1-[2-[(3S)-3-[[8-(trifluoromethyl)-5-quinolyl]amino]pyrrolidin-1-yl]acetyl]pyrrolidine-2-carbonitrile], for which the IC50 at recombinant human DPP7 (recombinant human DPP7) was 1.13 µM; on Recombinant human FAP (setting [1]), 0.0008 µM; on recombinant human DPP9 (recombinant human DPP9) it was 5.42 µM; on recombinant human DPP8 (recombinant human DPP8), above 100 µM; at recombinant human PREP (recombinant human PREP), 1730 nM; at DPP4 (recombinant human DPP4), 1.24 µM.

Consider `N#C[C@@H]1CC(F)(F)CN1C(=O)CN1CC[C@H](Oc2ccnc3c(C(F)(F)F)cccc23)C1` [Example 104, (S)-4,4-difluoro-1-(2-((S)-3-((8-(trifluoromethyl)quinolin-4-yl)oxy)pyrrolidin-1-yl)acetyl)pyrrolidine-2-carbonitrile], for which the IC50 on recombinant human DPP7 is 0.0834 µM; on Recombinant human FAP (setting [2]), 0.00114 µM; at recombinant human DPP9 (setting [3]) it was 22.2 µM; at recombinant human DPP8 (setting [4]), 16.2 µM; on recombinant human PREP (setting [2]) it was 3080 nM; against DPP4 (setting [3]) it was above 1 µM.

Turning to `CN(c1ccc2ncccc2c1)C1CCN(CC(=O)N2C[C@@H](F)C[C@H]2C#N)CC1` [Example 315, (2S,4S)-4-fluoro-1-[2-[4-[methyl(6-quinolyl)amino]-1-piperidyl]acetyl]pyrrolidine-2-carbonitrile], the IC50 was 1.05 µM on recombinant human DPP7 (recombinant human DPP7); 0.0017 µM on Recombinant human FAP (setting [1]); 5.77 µM on recombinant human DPP9 (recombinant human DPP9); above 10 µM on recombinant human DPP8 (recombinant human DPP8); 134 nM on recombinant human PREP (recombinant human PREP); 9.15 µM at DPP4 (recombinant human DPP4).

Turning to `N#C[C@@H]1CC(F)(F)CN1C(=O)CN1CC[C@H](Oc2ccc(Cl)c3cccnc23)C1` [Example 109, (S)-1-(2-((S)-3-((5-chloroquinolin-8-yl)oxy)pyrrolidin-1-yl)acetyl)-4,4-difluoropyrrolidine-2-carbonitrile], the IC50 on recombinant human DPP7 is 0.0383 µM; on Recombinant human FAP (setting [2]) it was 0.0018 µM; on recombinant human DPP9 (setting [3]), 4.43 µM; at recombinant human DPP8 (setting [4]) it was 2.17 µM; on recombinant human PREP (setting [2]), 4140 nM; against DPP4 (setting [3]), above 1 µM.

Regarding `N#C[C@@H]1CCCN1C(=O)CN1CC[C@H](Oc2ncnc3sccc23)C1` [Example 68, (S)-1-(2-((S)-3-(thieno[2,3-d]pyrimidin-4-yloxy)pyrrolidin-1-yl)acetyl)pyrrolidine-2-carbonitrile], the IC50 at recombinant human DPP7 is 3.73 µM; at Recombinant human FAP (setting [2]), 0.00796 µM; on recombinant human DPP9 (setting [3]) it was above 100 µM; at recombinant human DPP8 (setting [4]) it was above 100 µM; on recombinant human PREP (setting [2]) it was above 100000 nM; at DPP4 (setting [3]) it was above 1 µM.

`N#C[C@@H]1CC(F)(F)CN1C(=O)CN1CC[C@H](Nc2cccc(-c3ccccc3)c2)C1` [Example 16, (S)-1-(2-((S)-3-([1,1′-biphenyl]-3-ylamino)pyrrolidin-1-yl)acetyl)-4,4-difluoropyrrolidine-2-carbonitrile]: the IC50 at recombinant human DPP7 was 0.0847 µM; at Recombinant human FAP (setting [2]), 0.0026 µM; at recombinant human DPP9 (setting [3]) it was 13.7 µM; at recombinant human DPP8 (setting [4]), 0.557 µM; at recombinant human PREP (setting [2]) it was above 100000 nM. In addition, the inhibition at 1 µM at DPP4 turned out to be 11%.

Turning to `N#C[C@@H]1CCCN1C(=O)CN1CC[C@H](Nc2cccc3ncccc23)C1` [Example 27, (S)-1-(2-((S)-3-(quinolin-5-ylamino)pyrrolidin-1-yl)acetyl)pyrrolidine-2-carbonitrile], the IC50 is 1.22 µM on recombinant human DPP7; 0.00162 µM on Recombinant human FAP (setting [2]); 27.4 µM at recombinant human DPP9 (setting [3]); 20.7 µM at recombinant human DPP8 (setting [4]); 12100 nM at recombinant human PREP (setting [2]). For the same molecule, the inhibition at 1 µM at DPP4 was 5.4%.

For `N#C[C@@H]1C[C@H](F)CN1C(=O)CN1CCC(Nc2cncc3ccccc23)CC1` [Example 339, (2S,4S)-4-fluoro-1-[2-[4-(4-isoquinolylamino)-1-piperidyl]acetyl]pyrrolidine-2-carbonitrile], the IC50 is 0.555 µM on recombinant human DPP7 (recombinant human DPP7); 0.0114 µM at Recombinant human FAP (setting [1]); above 30 µM on recombinant human DPP9 (recombinant human DPP9); above 10 µM on recombinant human DPP8 (recombinant human DPP8); 3590 nM at recombinant human PREP (recombinant human PREP); 8.79 µM at DPP4 (recombinant human DPP4).

On to `COc1ccc2nccc(O[C@H]3CCN(CC(=O)N4CC(F)(F)C[C@H]4C#N)C3)c2c1` [Example 103, (S)-4,4-difluoro-1-(2-((S)-3-((6-methoxyquinolin-4-yl)oxy)pyrrolidin-1-yl)acetyl)pyrrolidine-2-carbonitrile], for which the IC50 on recombinant human DPP7 was 0.174 µM; at Recombinant human FAP (setting [2]), 0.00068 µM; on recombinant human DPP9 (setting [3]), 4.75 µM; on recombinant human DPP8 (setting [4]), 7.68 µM; at recombinant human PREP (setting [2]), 5670 nM; against DPP4 (setting [3]) it was above 1 µM.
